Holding throughout (test): growth of human tumour cells (NCI), 48 h
Assay [1] has as its system 786-0 renal.
The subject of assay [2] is A498 renal.
The test system of assay [3] is HT29 colon.
The subject of assay [4] is NCI-H226 lung.
Assay [5] concerns NCI-H522 lung.
Assay [6] relates to PC-3 prostate.
Assay [7] has as its system SK-MEL-5 melanoma.
For assay [8], the system named is SK-OV-3 ovarian.
The subject of assay [9] is SW-620 colon.
The subject of assay [10] is T-47D breast.

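Cells were grown in 96-well plates and exposed to each compound for 48 hours at five concentrations; endpoints were interpolated linearly between bracketing concentrations, or set to the highest concentration if not reached. TGI: total growth inhibition.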

With `CCOC(=O)c1ccc(Nc2nc3ccc(C(F)(F)F)cc3nc2C(=O)OCC)cc1`, the TGI in assay [1], in [2], in assay [3], in [4], in [5] and in [6] was > 100 µM throughout. Moreover, the TGI in assay [7], in assay [8], in assay [9] and in assay [10] was > 100 µM in each case.
Take `Cc1cc(C)nc(NS(=O)(=O)c2ccc(NC(=O)c3cccc4c(NNc5ccc(S(=O)(=O)N=C(N)N)cc5)c5ccccc5nc34)cc2)n1`: the TGI in assay [1], in [2], in assay [3], in assay [4], in assay [5] and in [6] was > 50 µM each time. Moreover, the TGI in [7], in assay [8], in assay [9] and in assay [10] was > 50 µM in each case.
For `CC(C)N1CN(c2ccccc2)C2(CCN(CCCC(=O)c3ccc(F)cc3)CC2)C1=O`, the TGI in [1] was > 60.7 µM; in assay [2], 7.06 µM; in assay [3], 7.85 µM; in assay [4], 46.4 µM; in [5], 49.8 µM; in [6], > 71 µM. Further, the TGI is 6.53 µM in assay [7], > 100 µM in assay [8], 24.2 µM in [9] and 40.8 µM in assay [10].
With `Clc1ccc(/C(=C\c2ccccc2)Cn2ccnc2)cc1`, the TGI in assay [1] stood at 38.5 µM; in [2], 42.1 µM; in assay [3], 30.1 µM; in assay [4] it was 33.1 µM; in assay [5] it was 28 µM; in assay [6], 31.9 µM. The TGI was 25.6 µM in assay [7], 36.3 µM in assay [8], > 100 µM in [9] and 69.9 µM in [10].
As to `C[C@]12CC[C@@H]3c4ccc(O)cc4CC[C@H]3[C@@H]1C/C(=C\c1ccc(C#N)cc1)C2=O`, the TGI in [1] was > 100 µM; in [2], > 100 µM; in [3], 75.2 µM; in [4], > 100 µM; in assay [5], 41.6 µM; in [6], > 100 µM. In addition, the TGI in assay [7], in assay [8], in [9] and in assay [10] was > 100 µM throughout.
On to `O=C(OCC1OC(n2nc(Cn3nnc(-c4cccnc4)n3)n(-c3cccc4ccccc34)c2=S)C(OC(=O)c2ccccc2)C1OC(=O)c1ccccc1)c1ccccc1` (stereo not given), for which the TGI in assay [1], in assay [2], in assay [3], in assay [4], in assay [5] and in assay [6] was > 100 µM in each case. The TGI in [7], in [8], in assay [9] and in assay [10] was > 100 µM throughout.
In the case of `COc1ccc2c(c1)c(=O)c1c(NCCNCCO)ccc3c(=O)n(CCN(C)C)c(=O)n2c31`, the TGI in assay [1] was determined as 0.892 µM; in assay [2] it was 0.534 µM; in assay [3], 0.425 µM; in assay [4], 0.912 µM; in assay [5], 0.0868 µM; in [6], 0.624 µM. For the same compound, the TGI in assay [7] came to 0.598 µM; in [8], 2.71 µM; in [9], 5.94 µM; in [10] it was 0.541 µM.
In the case of `CC(C)C1=C(O)C2=C(C(=O)C1=O)C1(C)CCCC(C)(C)C1C(O)C2OC=O` (stereo not given), the TGI in [1] turned out to be 19 µM; in [2], 35.1 µM; in assay [3] it was 23.2 µM; in assay [4], 20.2 µM; in assay [5] it was 27.5 µM; in assay [6] it was 30.6 µM. Besides, the TGI in assay [7] came out at 18.9 µM; in assay [8], 27.1 µM; in assay [9] it was 13.1 µM; in [10] it was 27.9 µM.
For the compound `COC1C(O)C(O[C@H]2CC[C@@]3(C)C(CC[C@@H]4[C@@H]3CC[C@]3(C)[C@@H](C(C)OC5OC(CO)C(O)C(O)C5O)CC[C@]43O)C2)OC(C)C1OC1OC(CO)C(O)C(O)C1O` (stereo not given in full), the TGI in assay [1], in assay [2], in assay [3], in assay [4], in assay [5] and in assay [6] was > 100 µM throughout. Moreover, the TGI in assay [7], in assay [8], in assay [9] and in [10] was > 100 µM throughout.
Take `CC(C)[Si](OC/C(=C/COC(C)(C)C)[C@H]1CC=C(C(=O)c2ccccc2N2CN(C)C(=O)N(C)C2)C1)(C(C)C)C(C)C`: the TGI in assay [1] turned out to be 17.9 µM; in [2] it was 34.5 µM; in assay [3], 18.7 µM; in assay [4], 28.9 µM; in [5], 19.7 µM; in assay [6], 18.1 µM. In addition, the TGI was 23.1 µM in assay [7], 31.2 µM in assay [8], 6.61 µM in assay [9] and 23.6 µM in [10].
On to `COc1ccc(NC(C)c2ccncc2)cc1` (stereo not given), for which the TGI in [1], in [2], in [3], in assay [4], in assay [5] and in assay [6] was > 100 µM throughout. Further, the TGI in assay [7] is > 100 µM; in assay [8], 65 µM; in [9], > 100 µM; in assay [10] it was > 100 µM.
Take `CN(C)c1ccc(Cc2cc3c(O)ccc(O)c3cc(Cc3ccc(N(C)C)cc3)c2=O)cc1`: the TGI in [1] is 32.1 µM; in assay [2] it was > 75.5 µM; in assay [3], 37.1 µM; in assay [4], 56.2 µM; in assay [5], 32.5 µM; in assay [6] it was 32.7 µM. Besides, the TGI in assay [7] is 39.3 µM; in assay [8], > 100 µM; in [9] it was 41.9 µM; in assay [10] it was 26.8 µM.
As to `O=S1SC(=S)C2C=CC=CC21` (stereo not given), the TGI in [1], in assay [2], in [3], in assay [4], in assay [5] and in [6] was > 100 µM throughout. Besides, the TGI in [7], in assay [8], in assay [9] and in assay [10] was > 100 µM each time.
